Experimental data from article PMC10492782, “Exploiting the aggregation propensity of beta-lactamases to design inhibitors that induce enzyme misfolding” (Nature Communications, 2023).

What was measured:
Format in all cases: cell-based, Escherichia coli
E. coli TEM-30 = conditions: for Interoretation: E. coli TEM-30; for Interpretation: VITEK 2 AST card
Description: (§1) Beta-lactamase clinical samples were collected from University Hospitals Leuven and tested for ESBL production using the disk diffusion method. The beta-lactamase reference isolates were purchased from International Health Management Associates (IHMA). Bacterial strains were cultivated in Mueller–Hinton Broth (MHB, Difco) at 37 °C. Whenever required, growth media were supplemented with appropriate antibiotics to the medium or plates (kanamycin 30 µg/mL, L-arabinose 0.5 mg/mL, and IPTG […]). Escherichia coli BL21 (ThermoFisher Scientific, Belgium) was used for cloning and plasmid amplification. For the selection of antibiotic resistant colonies, E. coli carrying plasmids was grown in LB agar plates supplemented with the relevant antibiotic. Bacterial CFU counting was done on blood agar plates (BD Biosciences, Belgium) or MHA agar plates. Species identification and antibiograms for all clinical isolates were performed using MALDI-Tof and VITEK® 2 automated system (BioMérieux, France).
(§2) Khodaparast et al Supplementary data
(§3) study. […] Abbreviations: S,
(§4) susceptible; I, intermediate; R, resistant.

E. coli NDM5b = experiment: VITEK 2 AST antimicrobial susceptibility testing; conditions: for Interoretation: E. coli NDM5b; for Interpretation: VITEK 2 AST card
Description: as §1, §2, §3, §4

E. coli TEM-104 = experiment: VITEK 2 AST antimicrobial susceptibility testing; conditions: for Interoretation: E. coli TEM-104; for Interpretation: VITEK 2 AST card
Description: as §1, §2, §3, §4

E. coli SHV1 (APHA) = experiment: VITEK 2 AST antimicrobial susceptibility testing; conditions: for Interoretation: E. coli SHV154; for Interpretation: VITEK 2 AST card
Description: as §1, §2, §3, §4

E. coli NDM5a = experiment: VITEK 2 AST antimicrobial susceptibility testing; conditions: for Interoretation: E. coli NDM5a; for Interpretation: VITEK 2 AST card
Description: as §1, §2, §3, §4

E. coli TEM-16 = experiment: VITEK 2 AST antimicrobial susceptibility testing; conditions: for Interoretation: E. coli TEM-16; for Interpretation: VITEK 2 AST card
Description: as §1, §2, §3, §4

E. coli TEM-148 = experiment: VITEK 2 AST antimicrobial susceptibility testing; conditions: for Interoretation: E. coli TEM-148; for Interpretation: VITEK 2 AST card
Description: as §1, §2, §3, §4

E. coli TEM-206 = experiment: VITEK 2 AST antimicrobial susceptibility testing; conditions: for Interoretation: E. coli TEM-206; for Interpretation: VITEK 2 AST card
Description: as §1, §2, §3, §4

Row | Compound | Interoretation (E. coli TEM-30) | Interpretation (E. coli TEM-30) | Interoretation (E. coli NDM5b) | Interpretation (E. coli NDM5b) | Interoretation (E. coli TEM-104) | Interpretation (E. coli TEM-104) | Interoretation (E. coli SHV1 (APHA)) | Interpretation (E. coli SHV1 (APHA)) | Interoretation (E. coli NDM5a) | Interpretation (E. coli NDM5a) | Interoretation (E. coli TEM-16) | Interpretation (E. coli TEM-16) | Interoretation (E. coli TEM-148) | Interpretation (E. coli TEM-148) | Interoretation (E. coli TEM-206) | Interpretation (E. coli TEM-206)
1 | CO/N=C(\C(=O)N[C@@H]1C(=O)N2C(C(=O)O)=C(COC(N)=O)CS[C@H]12)c1ccco1 [Cefuroxime] | R | R | R | R | S | S | R | R | R | R | R | R | R | R | R | R
2 | CNC(C)C1CCC(N)C(OC2C(N)CC(N)C(OC3OCC(C)(O)C(NC)C3O)C2O)O1 (stereo not shown) [Gentamicin] | R | R | S | S | S | S | R | R | R | R | S | S | S | S | S | S
3 | C[C@H]1COc2c(N3CCN(C)CC3)c(F)cc3c(=O)c(C(=O)O)cn1c23 [Levofloxacin] | R | R | R | R | S | S | S | S | R | R | S | S | S | S | R | R
4 | C[C@@H](O)[C@H]1C(=O)N2C(C(=O)O)=C(S[C@@H]3CN[C@H](C(=O)N(C)C)C3)[C@H](C)[C@H]12 [Meropenem] | S | S | I | I | S | S | S | S | R | R | S | S | S | S | S | S
5 | O=C1CN(/N=C/c2ccc([N+](=O)[O-])o2)C(=O)N1 [Nitrofurantoin] | S | S | R | R | S | S | S | S | R | R | S | S | S | S | S | S
6 | CO[C@@]1(NC(=O)C(C(=O)O)c2ccsc2)C(=O)N2[C@@H](C(=O)O)C(C)(C)S[C@@H]21 (stereo partly shown) [Temocillin] | S | S |  | R | S | S | R | R |  | R |  | R | S | S | S | S
7 | CN(C)c1cc(NC(=O)CNC(C)(C)C)c(O)c2c1C[C@H]1C[C@H]3[C@H](N(C)C)C(O)=C(C(N)=O)C(=O)[C@@]3(O)C(O)=C1C2=O [Tigecycline] | I | I | S | S | S | S | S | S | S | S | S | S | S | S | S | S
